Reference: patent US20070141067A1, “TARGETED CANCER THERAPY” (MAYO MEDICAL VENTURES, priority 2004, published 2007)

System: HeLa cells
Assay: siRNA pretreatment with or without low dose doxorubicin, HeLa cell survival (drug sensitization)
Assay type: cell-based
Conditions: 50 fold lower than the LD90, dose response experiment
Description: FIG. 6A is a graph illustrating percent cell survival following treatment with a gene-specific siRNA, with or without a low dose drug. Seventy-six test siRNAs (2 or 3 siRNAs per gene plus 6 control siRNAs), targeting 29 novel candidate genes, were transfected into HeLa cells.
FIG. 6B is an enlarged section of the graph in FIG. 6A.
FIG. 6C is a graph of the same data of FIG. 6A plotted as a percentage increase in sensitivity relative to the untreated sample.
An analysis was conducted by a similar method as described in FIG. 4, with two main differences. First, a different set of siRNAs were used. The siRNAs targeted 29 novel candidate genes that were previously identified by cDNA microarray and CGH analysis to be overexpressed and amplified in 14 breast cancer cell lines (Hyman et al., Cancer Res. 62:6240-5, 2002). There were 76 test siRNAs (2 or 3 siRNA per gene plus 6 control siRNAs). The second difference in this study was that the number of experiments was doubled to include a low dose doxorubicin (“Dox”) treatment. Four replicates of the no-drug control, and four replicates of the low dose drug were prepared for a total of 8 wells treated with each siRNA. The HeLa cells were transfected with siRNA as described above, and the cells were allowed to incubate for 24 hours to achieve silencing of the targeted genes. […]

With `COc1cccc2c1C(=O)c1c(O)c3c(c(O)c1C2=O)C[C@@](O)(C(=O)CO)C[C@@H]3O[C@H]1C[C@H](N)[C@H](O)[C@H](C)O1` [Dox, doxorubicin] the “effect of low dose Dox on HeLa cell survival” value was “no effect”.
